Test results taken from paper PMC10683482, “Offsetting Low-Affinity Carbohydrate Binding with Covalency to Engage Sugar-Specific Proteins for Tumor-Immune Proximity Induction” (ACS Central Science, 2023).

System: Hek-PSMA cells
Assay: ADCC reporter (jurkat activation) assay directly in polyclonal human IgG (Figure 5C)
Format: cell-based
Conditions: 9 μM compound with 230 μM human IgG 24 h, no column step
Experimental: Figure 5 Functional analysis of PSMA-targeting SuFEx cARMs. A. Chemical structure of the functional GU cARM molecule used for PSMA targeting. B. Confocal (top) and fluorescent imaging (bottom) of Hek-PSMA cells treated with anti-23F only or anti-23F antibody pre-incubated with rhamnose-SO2F-cARM 14. C. Jurkat activation assay evaluation of 14 directly in polyclonal human IgG. Each cARM/ARM (9 μM) was incubated with polyclonal human IgG (230 μM) overnight and then added to pre-plated Hek-P cells (50,000 cells). To this cell solution, luciferase expressing jurkat cells were added and incubated for 24 hours. Activation of jurkat cells was determined by measuring luciferase expression with a BioGlo assay kit. D. ADCP assays using various PSMA-expressing model and bonafide cancer cell lines. Each cARM/ARM (8 μM) was incubated with anti-23F (4 μM) overnight followed by addition to target cells (150,000 cells). Next, IFN-γ activated monocytes (150,000 cells) were added and incubated for 1 hour at 37 °C. ADCP was determined via flow cytometry.
Next, the capacity of alkyl-AI-cARM 10, alkyl-ARM 11, and SO2F-cARM 14 to direct immune activation via polyclonal anti-rhamnose antibodies was evaluated using a modified ADCC reporter assay (Figure 5C). ADCC represents a major mode of antitumor NK cell immunotherapeutic function, common to many FDA-approved monoclonal antibody therapies. […]

Compound	jurkat (immune) activation
C[C@@H]1O[C@@H](OCc2cn(CCc3cn(C(=O)OCCNC(=O)CCCCCNC(=O)CCCCCNC(=O)CCCCCNC(=O)NCCCC[C@H](NC(=O)N[C@@H](CCC(=O)O)C(=O)O)C(=O)O)cn3)nn2)[C@H](O)[C@H](O)[C@H]1O [compound 10]	failed to direct immune activation
C[C@@H]1O[C@@H](OCc2cn(CCCNC(=O)OCCNC(=O)CCCCCNC(=O)CCCCCNC(=O)CCCCCNC(=O)NCCCC[C@H](NC(=O)N[C@@H](CCC(=O)O)C(=O)O)C(=O)O)nn2)[C@H](O)[C@H](O)[C@H]1O [compound 11]	failed to direct immune activation
